Values quoted from earlier work as cited in US11859018B2, “Peptoid-based chelating ligands for selective metal chelation” (TRIAD National Security, LLC., priority 2018, dated 2024).

Structure (SMILES): O=C(N[C@H]1COC(=O)[C@@H](NC(=O)c2cccc(O)c2O)COC(=O)[C@@H](NC(=O)c2cccc(O)c2O)COC1=O)c1cccc(O)c1O [enterobactin]
- stability constant for the Fe(III) complex, Log(Kβ): 49
